We go through three substances from patent publication US8538706B2, “Method for affinity scoring of peptide/protein complexes” (Lonza Biologics PLC, priority 2004, dated 2013).

One may read the Kd as a measure of binding affinity in units of concentration.

Test [1] concerns the target HLA-A*0101 (A1) (Homo sapiens, UniProt P04439, A114D/A174V/A182V/D101N/D185E/E176A/E190D/L180R/Q94H/R68K/S129P/T187R/V100A/V91M/W191G). Conditions: cited from earlier work.
Test [2] concerns the target HLA-A*2402 (Homo sapiens, UniProt P04439, D101N/D140Y/D185E/E176V/E190D/F33S/G103R/G107R/I119L/I121M/I306V/K335N/L105A/L180Q/L300P/N151K/N90K/Q86E/Q94H/R106L/R138H/R89G/T104I/T345S/V100E/W191G/Y123F). Put plainly: independent binding assay of fluorescent reference peptide (Kdref), A24. Conditions: single-site curve fitting, approximate.
Description: 50% inhibitory concentrations (IC50-values) were calculated as averages obtained from at least 3 independent measurements, i.e. from different cell preparations and peptide dilutions. Test peptides >95% pure (Thermo Electron GmbH) were stored at 10 mM in DMSO at −20° C. Cysteine-containing peptides were stored at 10 mM in 1 mM DTT DMSO. […] IC50-values were converted to binding free energies (AG) using the relationships Kd=IC50Kdref/cref (7) and AG=RT ln(Kd) (8) where Kdref and cref are the dissociation constant and formal concentration of the reference peptide, respectively. The Kdref values were derived from an independent binding assay in which the fluorescence intensity was measured as a function of increasing concentrations of reference peptide.

Take IYQYMDDLY: the “binding to A1 in words” value in test [1] (Tyr at P2) is given as “medium-affinity binder”.
For the substance RYLKC(5Fluorescein)QQLL, in test [2], the Kd was ~30 nM.
Turning to YSDSVYGDT, in test [1] (strongest A1-binding peptide from HPV-18), the Kd was 188 nM.
